{"source": "patent US9149038B2", "about": "“4-amino-6-(heterocyclic)picolinates and 6-amino-2-(heterocyclic)pyrimidine-4-carboxylates and their use as herbicides” (Dow AgroSciences LLC, priority 2013, dated 2015)", "key": {"[1]": {"tested_on": "Key Grass and Sedge Weeds as well as Grass Crops", "assay": "Post-Emergent Test II: postemergent herbicidal activity, visual rating after 14 d (Table 8)", "type": "in vivo", "settings": "post-emergence, 336 h; for pest or weed control at 35 g/ha: 35 g ai/ha; for pest or weed control at 70 g/ha: 70 g ai/ha; for pest or weed control at 140 g/ha: 140 g ai/ha", "in_short": "(§1)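 Greenhouse-grown plants at the first or second true leaf stage (7-21 d, ~15 h photoperiod, 23-29° C day) were sprayed with compound in acetone/DMSO-based aqueous spray containing crop oil concentrate and Triton X-155 at 187 L/ha. Injury versus untreated plants was rated visually after 14 d on a 0-100 scale.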"}, "[2]": {"tested_on": "Key Broadleaf Weed and Crop Species", "assay": "Post-Emergent Test II: postemergent herbicidal activity, visual rating after 14 d (Table 7)", "type": "in vivo", "settings": "post-emergence, 336 h; for pest or weed control at 35 g/ha: 35 g ai/ha; for pest or weed control at 70 g/ha: 70 g ai/ha; for pest or weed control at 140 g/ha: 140 g ai/ha", "in_short": "as §1"}, "[3]": {"settings": "barnyardgrass (Echinochloa crus-galli), read-out: Visual Growth Reduction (%) 14 Days After Application ECHCG"}, "[4]": {"settings": "giant foxtail (Setaria faberi), read-out: Visual Growth Reduction (%) 14 Days After Application SETFA"}, "[5]": {"settings": "maize, corn (Zea mays), read-out: Visual Growth Reduction (%) 14 Days After Application ZEAMX"}, "[6]": {"settings": "rice (Oryza sativa), read-out: Visual Growth Reduction (%) 14 Days After Application ORYSA"}, "[7]": {"settings": "wheat, spring (Triticum aestivum), read-out: Visual Growth Reduction (%) 14 Days After Application TRZAS"}, "[8]": {"settings": "yellow nutsedge (Cyperus esculentus), read-out: Visual Growth Reduction (%) 14 Days After Application CYPES"}, "[9]": {"settings": "lambsquarters (Chenopodium album), read-out: Visual Growth Reduction (%) 14 Days After Application CHEAL"}, "[10]": {"settings": "oilseed rape, canola (Brassica napus), read-out: Visual Growth Reduction (%) 14 Days After Application BRSNN"}, "[11]": {"settings": "redroot pigweed (Amaranthus retroflexus), read-out: Visual Growth Reduction (%) 14 Days After Application AMARE"}, "[12]": {"settings": "sunflower (Helianthus annuus), read-out: Visual Growth Reduction (%) 14 Days After Application HELAN"}, "[13]": {"settings": "velvetleaf (Abutilon theophrasti), read-out: Visual Growth Reduction (%) 14 Days After Application ABUTH"}, "[14]": {"settings": "wild poinsettia (Euphorbia heterophylla), read-out: Visual Growth Reduction (%) 14 Days After Application EPHHL"}}, "note": "Where two headings read alike, the source gives them in different places."}
{"smiles": "COC(=O)c1nc(-c2ccc3c(c2)OC(F)(F)O3)c(C)c(N)c1Cl", "note": "[Compound 49]", "values": [{"measurement": "pest or weed control at 35 g/ha", "setting": "[1]; [3]", "result": "0 to 29", "unit": "%"}, {"measurement": "pest or weed control at 70 g/ha", "setting": "[1]; [3]", "result": "0 to 29", "unit": "%"}, {"measurement": "pest or weed control at 140 g/ha", "setting": "[1]; [3]", "result": "0 to 29", "unit": "%"}, {"measurement": "pest or weed control at 35 g/ha", "setting": "[1]; [4]", "result": "0 to 29", "unit": "%"}, {"measurement": "pest or weed control at 70 g/ha", "setting": "[1]; [4]", "result": "0 to 29", "unit": "%"}, {"measurement": "pest or weed control at 140 g/ha", "setting": "[1]; [4]", "result": "0 to 29", "unit": "%"}, {"measurement": "pest or weed control at 35 g/ha", "setting": "[1]; [5]", "result": "30 to 44", "unit": "%"}, {"measurement": "pest or weed control at 70 g/ha", "setting": "[1]; [5]", "result": "60 to 74", "unit": "%"}, {"measurement": "pest or weed control at 140 g/ha", "setting": "[1]; [5]", "result": "60 to 74", "unit": "%"}, {"measurement": "pest or weed control at 35 g/ha", "setting": "[1]; [6]", "result": "0 to 29", "unit": "%"}, {"measurement": "pest or weed control at 70 g/ha", "setting": "[1]; [6]", "result": "0 to 29", "unit": "%"}, {"measurement": "pest or weed control at 140 g/ha", "setting": "[1]; [6]", "result": "0 to 29", "unit": "%"}, {"measurement": "pest or weed control at 35 g/ha", "setting": "[1]; [7]", "result": "0 to 29", "unit": "%"}, {"measurement": "pest or weed control at 70 g/ha", "setting": "[1]; [7]", "result": "30 to 44", "unit": "%"}, {"measurement": "pest or weed control at 140 g/ha", "setting": "[1]; [7]", "result": "30 to 44", "unit": "%"}, {"measurement": "pest or weed control at 35 g/ha", "setting": "[1]; [8]", "result": "0 to 29", "unit": "%"}, {"measurement": "pest or weed control at 70 g/ha", "setting": "[1]; [8]", "result": "0 to 29", "unit": "%"}, {"measurement": "pest or weed control at 140 g/ha", "setting": "[1]; [8]", "result": "0 to 29", "unit": "%"}, {"measurement": "pest or weed control at 35 g/ha", "setting": "[2]; [9]", "result": "0 to 29", "unit": "%"}, {"measurement": "pest or weed control at 70 g/ha", "setting": "[2]; [9]", "result": "30 to 44", "unit": "%"}, {"measurement": "pest or weed control at 140 g/ha", "setting": "[2]; [9]", "result": "85 to 94", "unit": "%"}, {"measurement": "pest or weed control at 35 g/ha", "setting": "[2]; [10]", "result": "0 to 29", "unit": "%"}, {"measurement": "pest or weed control at 70 g/ha", "setting": "[2]; [10]", "result": "0 to 29", "unit": "%"}, {"measurement": "pest or weed control at 140 g/ha", "setting": "[2]; [10]", "result": "0 to 29", "unit": "%"}, {"measurement": "pest or weed control at 35 g/ha", "setting": "[2]; [11]", "result": "0 to 29", "unit": "%"}, {"measurement": "pest or weed control at 70 g/ha", "setting": "[2]; [11]", "result": "0 to 29", "unit": "%"}, {"measurement": "pest or weed control at 140 g/ha", "setting": "[2]; [11]", "result": "0 to 29", "unit": "%"}, {"measurement": "pest or weed control at 35 g/ha", "setting": "[2]; [12]", "result": "85 to 94", "unit": "%"}, {"measurement": "pest or weed control at 70 g/ha", "setting": "[2]; [12]", "result": "85 to 94", "unit": "%"}, {"measurement": "pest or weed control at 140 g/ha", "setting": "[2]; [12]", "result": "95 to 100", "unit": "%"}, {"measurement": "pest or weed control at 35 g/ha", "setting": "[2]; [13]", "result": "0 to 29", "unit": "%"}, {"measurement": "pest or weed control at 70 g/ha", "setting": "[2]; [13]", "result": "0 to 29", "unit": "%"}, {"measurement": "pest or weed control at 140 g/ha", "setting": "[2]; [13]", "result": "30 to 44", "unit": "%"}, {"measurement": "pest or weed control at 35 g/ha", "setting": "[2]; [14]", "result": "0 to 29", "unit": "%"}, {"measurement": "pest or weed control at 70 g/ha", "setting": "[2]; [14]", "result": "0 to 29", "unit": "%"}, {"measurement": "pest or weed control at 140 g/ha", "setting": "[2]; [14]", "result": "0 to 29", "unit": "%"}]}
{"smiles": "COC(=O)c1nc(-c2c(F)cc3c(c2F)OCO3)cc(N)c1Cl", "note": "[Compound 48]", "values": [{"measurement": "pest or weed control at 35 g/ha", "setting": "[1]; [3]", "result": "75 to 84", "unit": "%"}, {"measurement": "pest or weed control at 70 g/ha", "setting": "[1]; [3]", "result": "75 to 84", "unit": "%"}, {"measurement": "pest or weed control at 140 g/ha", "setting": "[1]; [3]", "result": "85 to 94", "unit": "%"}, {"measurement": "pest or weed control at 35 g/ha", "setting": "[1]; [4]", "result": "0 to 29", "unit": "%"}, {"measurement": "pest or weed control at 70 g/ha", "setting": "[1]; [4]", "result": "60 to 74", "unit": "%"}, {"measurement": "pest or weed control at 140 g/ha", "setting": "[1]; [4]", "result": "75 to 84", "unit": "%"}, {"measurement": "pest or weed control at 35 g/ha", "setting": "[1]; [5]", "result": "30 to 44", "unit": "%"}, {"measurement": "pest or weed control at 70 g/ha", "setting": "[1]; [5]", "result": "60 to 74", "unit": "%"}, {"measurement": "pest or weed control at 140 g/ha", "setting": "[1]; [5]", "result": "75 to 84", "unit": "%"}, {"measurement": "pest or weed control at 35 g/ha", "setting": "[1]; [6]", "result": "30 to 44", "unit": "%"}, {"measurement": "pest or weed control at 70 g/ha", "setting": "[1]; [6]", "result": "45 to 59", "unit": "%"}, {"measurement": "pest or weed control at 140 g/ha", "setting": "[1]; [6]", "result": "60 to 74", "unit": "%"}, {"measurement": "pest or weed control at 35 g/ha", "setting": "[1]; [7]", "result": "0 to 29", "unit": "%"}, {"measurement": "pest or weed control at 70 g/ha", "setting": "[1]; [7]", "result": "30 to 44", "unit": "%"}, {"measurement": "pest or weed control at 140 g/ha", "setting": "[1]; [7]", "result": "60 to 74", "unit": "%"}, {"measurement": "pest or weed control at 35 g/ha", "setting": "[1]; [8]", "result": "0 to 29", "unit": "%"}, {"measurement": "pest or weed control at 70 g/ha", "setting": "[1]; [8]", "result": "0 to 29", "unit": "%"}, {"measurement": "pest or weed control at 140 g/ha", "setting": "[1]; [8]", "result": "30 to 44", "unit": "%"}, {"measurement": "pest or weed control at 35 g/ha", "setting": "[2]; [9]", "result": "95 to 100", "unit": "%"}, {"measurement": "pest or weed control at 70 g/ha", "setting": "[2]; [9]", "result": "95 to 100", "unit": "%"}, {"measurement": "pest or weed control at 140 g/ha", "setting": "[2]; [9]", "result": "95 to 100", "unit": "%"}, {"measurement": "pest or weed control at 35 g/ha", "setting": "[2]; [10]", "result": "95 to 100", "unit": "%"}, {"measurement": "pest or weed control at 70 g/ha", "setting": "[2]; [10]", "result": "95 to 100", "unit": "%"}, {"measurement": "pest or weed control at 140 g/ha", "setting": "[2]; [10]", "result": "95 to 100", "unit": "%"}, {"measurement": "pest or weed control at 35 g/ha", "setting": "[2]; [11]", "result": "85 to 94", "unit": "%"}, {"measurement": "pest or weed control at 70 g/ha", "setting": "[2]; [11]", "result": "95 to 100", "unit": "%"}, {"measurement": "pest or weed control at 140 g/ha", "setting": "[2]; [11]", "result": "95 to 100", "unit": "%"}, {"measurement": "pest or weed control at 35 g/ha", "setting": "[2]; [12]", "result": "0 to 29", "unit": "%"}, {"measurement": "pest or weed control at 70 g/ha", "setting": "[2]; [12]", "result": "45 to 59", "unit": "%"}, {"measurement": "pest or weed control at 140 g/ha", "setting": "[2]; [12]", "result": "60 to 74", "unit": "%"}, {"measurement": "pest or weed control at 35 g/ha", "setting": "[2]; [13]", "result": "85 to 94", "unit": "%"}, {"measurement": "pest or weed control at 70 g/ha", "setting": "[2]; [13]", "result": "95 to 100", "unit": "%"}, {"measurement": "pest or weed control at 140 g/ha", "setting": "[2]; [13]", "result": "95 to 100", "unit": "%"}, {"measurement": "pest or weed control at 35 g/ha", "setting": "[2]; [14]", "result": "95 to 100", "unit": "%"}, {"measurement": "pest or weed control at 70 g/ha", "setting": "[2]; [14]", "result": "95 to 100", "unit": "%"}, {"measurement": "pest or weed control at 140 g/ha", "setting": "[2]; [14]", "result": "95 to 100", "unit": "%"}]}
